{
  "source": "patent US20060252707A1",
  "about": "“Pharmaceutical composition for the treatment and/or the prevention of atherosclerosis from infectious origin” (UNIVERSITE DE LIEGE, priority 2003, published 2006)",
  "type_in_all_cases": "cell-based, human",
  "key": {"IL-8": {"system": "IL-8", "test": "IL-8 production (ELISA, culture supernatant) by THP-1 cells pre-incubated with Chlamydia pneumoniae", "conditions": "10^−9 M to 10^−5 M; THP-1 pre-incubated (19h) with Chlamydia", "protocol": "(§1) By using this model, one may verify that the monocyte incubation with C. pneumoniae during 19 hours, enhances the production of TNFα(FIG. 6, part 1) and IL-8 ([…]), as measured by immunological methods (ELISA type) in the culture supernatant."}, "[1]": {"system": "THP-1 cells conditioned with Escherichia Coli endotoxin (LPS)", "test": "Oxidant activity (ethylene production) of THP-1 cells conditioned with Escherichia Coli endotoxin (LPS), then stimulated by PMA", "conditions": "for Ethylene: FIG. 9 part 2, % of THP-1 + LPS, PMA 10^−7 M", "protocol": "FIG. 9 represents the effects of hydrocortisone (HCT) on the oxidant activity of THP-1 cells conditioned either with Chlamydia pneumoniae (part 1; n=13) or with Escherichia Coli endotoxin (LPS) (part 2), and then stimuled by PMA 10^−7 M. Ethylene is expressed in % of the value measured for THP-1 cells incubated with Chlamydia (column 2 for part 1), or incubated with LPS (column 1 for par 2).\n(§2) After incubation with C. pneumoniae, the cells are washed and detached from the wells; they are put in sterile vials and an oxidable substrate, α-keto-methyl butyric acid (KMB) at 10^−3 M, is added. The vial is sealed and the following reagents are added by needle puncture. through the septum: 200 U horseradish peroxidase (HRP) and 10^−7 M phorbol myristate acetate (PMA).\n(§3) PMA is a monocyte activator, enhancing the superoxide anion production by these cells. Superoxide anion dismutates into hydrogen peroxide (H2O2), which is used by HRP to form more oxidant species, able to oxidize KMB, releasing ethylene. After 3 hours of incubation at 37° C, ethylene, which has accumulated in the gaseous phase of the sealed vial is measured by gas liquid chromatography, on a Porapak T column (TM) equipped with flame ionisation detector. These assays can be made with the prior addition of a reagent able to inhibit or to stimulate the monocytes, the reagent being added, either at pre-incubation (at the same time as the Chlamydia EB), or at the moment of PMA activation.\nTwo glucocorticoids were tested: hydrocortisone and methylprednisolone. […] On the contrary, HCT is an inhibitor on the oxidation rate when the cells are conditioned with endotoxins (LPS) of Escherichia coli (FIG. 9 part 2, columns 2, 3 and 4) (Ethylene values are expressed in % of the control cells=THP-1 cells stimulated by PMA 10^−7 M after pre-incubation with Chlamydia (part 1, column 2) or LPS ([…]"}, "TNFα": {"system": "TNFα", "test": "TNFα production (ELISA, culture supernatant) by THP-1 cells pre-incubated with Chlamydia pneumoniae", "conditions": "10^−9 M to 10^−5 M; THP-1 pre-incubated (19h) with Chlamydia", "protocol": "as §1"}, "[2]": {"system": "THP-1 cells conditioned with Chlamydia pneumoniae", "test": "Oxidant activity (ethylene production from KMB, gas liquid chromatography) of THP-1 cells conditioned with Chlamydia pneumoniae, then stimulated by PMA", "conditions": "for Ethylene: % of THP-1 + Chlamydia", "protocol": "This model has been described in details in Mouithys Mickalad et al. (Biochem Biophys Res Comm 2001, 287: 781-788). Treatment of the Cells with Chlamydia pneumoniae:\nThe monocytes (in multiwell plates, 2×10^6 cells/well) are conditioned by a pre-incubation of 19 hours with elementary bodies of Chlamydia pneumoniae (at a dose equivalent to a mean endotoxin concentration of 3.3 pg). The elementary bodies are obtained by Chlamydia culture in MacCoy cells (American Type Culture Collection, Rockville, USA).\nas §2, §3"}, "p22^phox": {"system": "p22^phox", "test": "Gene expression (PCR) of NADPH-oxidase subunit p22phox in THP-1 cells incubated with Chlamydia", "conditions": "FIG. 16; 10^−4 to 10^−6 M", "protocol": "FIG. 16 represents the genetic expression of one of the subunits of NADPH-oxidase, the p22^phox, and the effects of glucocorticoids, hydrocortisone (HCT) and methylprednisolone (MPL) (data are expressed as relative values by comparison with a reference gene).\nBy the PCR (<<polymerase chain reaction>>) method, it was observed that the incubation of monocytes with C. pneumoniae increased the expression of the genes (FIG. 8, column 2 compared to column 1) coding for interleukines 1β (IL-1β) (FIG. 8, part 1), 6 (IL-6) (FIG. 8, part 2) and 8 (IL-8) (FIG. 8, part 3), coding for inducible cyclo-oxygenase (COX-2) (FIG. 8, part 4) and coding for one of the subunits of NADPH-oxidase, the p22 protein (p22^phox) (FIG. 8, part 5) (results are presented as relative values by comparison with a reference gene)."}, "[3]": {"system": "nuclear transcription factor kappaB (NF-κB)", "test": "Activation of NF-κB (binding to DNA) by electrophoretic mobility shift assay in THP-1 cells pre-incubated with Chlamydia", "conditions": "for NF-κB relative value (%): THP-1 + Chlamydia, % of THP-1 without preincubation with C pneumoniae (FIG. 7)", "protocol": "FIG. 7 represents the effects of pre-incubation with Chlamydia on the activity of the nuclear transcription factor kappaB (NF-kB) (column 2). NF-kB is expressed in % of column 1 (THP-1 cells without preincubation with C pneumoniae)\nThe activation of NF-κB was measured by the technique of <<electrophoretic mobility shift assay>> (EMSA) (Schoonbroodt et al., 2000, J Immunol. 164: 4292-4300; Nys et al., 2003, Nitric Oxide 9: 33-43) (FIG. 7). The activation of NF-κB is expressed in % of control cells (cells which have not been pre-incubated with Chlamydia) (column 1). The incubation of monocytes with C. pneumoniae activates the NF-κB binding to DNA (FIG. 7, column 2)."}, "THP-1 cell line": {"system": "THP-1 cell line", "test": "Model of foam cell formation from THP-1 monocytes (Chlamydia pneumoniae, then LDL or liposomes, Oil Red O)", "conditions": "LDL", "protocol": "A model of foam cell formation from monocytes (THP-1 cell line) was developed. The cells are incubated for 19 hours with Chlamydia pneumoniae. This incubation is followed by the addition of human LDL or liposomes, and another incubation period of 48 hours. At the end of this second period of incubation, the cells are fixed and stained with oil Red O (Sigma, Belgium) (Smirnova et al., 2004, Am J Physiol Heart Circ Physiol. March 11 (Epub ahead of print) to highlight the foam cells. When drugs are used in this model, they are added at the same time as the LDL or liposomes. LDL are prepared from human blood drawn on EDTA. They are isolated by sequential flotation centrifugation with increased concentrations of KBr. After their isolation, LDL are dialysed, sterilised by filtration and their purity is confirmed by electrophoresis. Liposomes are lipid vesicles prepared by extrusion with cholesterol esters and phospholipids, mimicking lipoproteins."}},
  "data": [
    {"compound": "C[C@]12CCC(=O)C=C1CC[C@@H]1[C@@H]2[C@@H](O)C[C@@]2(C)[C@H]1CC[C@]2(O)C(=O)CO", "note": "[HCT, hydrocortisone]", "values": [
      {"measurement": "effect on production of IL-8", "setting": "IL-8", "value": "dose-dependent inhibiting effect"},
      {"measurement": "Ethylene", "setting": "[1]; 10^−4 M", "value": 19, "unit": "%"},
      {"measurement": "Ethylene", "setting": "[1]; 10^−5 M", "value": 50, "unit": "%"},
      {"measurement": "Ethylene", "setting": "[1]; 10^−6 M", "value": 57, "unit": "%"},
      {"measurement": "effect on oxidation rate", "setting": "[1]; cells conditioned with endotoxins (LPS) of Escherichia coli, 10^−4 to 10^−6 M", "value": "inhibitor"},
      {"measurement": "effect on production of TNFα", "setting": "TNFα", "value": "dose-dependent inhibiting effect"},
      {"measurement": "Ethylene", "setting": "[2]; FIG. 9 part 1, 10^−4 M, PMA 10^−7 M", "value": 108, "unit": "%"},
      {"measurement": "Ethylene", "setting": "[2]; FIG. 9 part 1, 10^−5 M, PMA 10^−7 M", "value": 119, "unit": "%"},
      {"measurement": "Ethylene", "setting": "[2]; FIG. 9 part 1, 10^−6 M, PMA 10^−7 M", "value": 139, "unit": "%"},
      {"measurement": "Ethylene", "setting": "[2]; FIG. 19, drug alone 10^−4 M, pre-incubation with Chlamydia", "value": 84.0, "unit": "%"},
      {"measurement": "Ethylene", "setting": "[2]; FIG. 19, drug alone 10^−5 M, pre-incubation with Chlamydia", "value": 116.0, "unit": "%"},
      {"measurement": "Ethylene", "setting": "[2]; FIG. 20, drug alone 10^−4 M, pre-incubation with Chlamydia", "value": 98.0, "unit": "%"},
      {"measurement": "Ethylene", "setting": "[2]; FIG. 20, drug alone 10^−5 M, pre-incubation with Chlamydia", "value": 85.0, "unit": "%"},
      {"measurement": "Ethylene", "setting": "[2]; FIG. 21, drug alone 10^−4 M, pre-incubation with Chlamydia", "value": 104.0, "unit": "%"},
      {"measurement": "Ethylene", "setting": "[2]; FIG. 21, drug alone 10^−5 M, pre-incubation with Chlamydia", "value": 72.0, "unit": "%"},
      {"measurement": "Ethylene", "setting": "[2]; FIG. 22, drug alone 10^−4 M, pre-incubation with Chlamydia", "value": 118.0, "unit": "%"},
      {"measurement": "Ethylene", "setting": "[2]; FIG. 22, drug alone 10^−5 M, pre-incubation with Chlamydia", "value": 68.1, "unit": "%"},
      {"measurement": "effect on oxidant activity / oxidation rate", "setting": "[2]; drug added at cell conditioning with Chlamydia (pre-incubation 19 hours), then PMA 10^−7 M", "value": "either does not modify the oxidant capacity, or even increases the oxidation rate"},
      {"measurement": "effect on gene expression of p22^phox", "setting": "p22^phox", "value": "inhibitors"},
      {"measurement": "NF-κB relative value (%)", "setting": "[3]; 10^−5 M", "value": 396, "unit": "%"},
      {"measurement": "NF-κB relative value (%)", "setting": "[3]; 10^−6 M", "value": 480, "unit": "%"},
      {"measurement": "effect on the activation of NF-κB", "setting": "[3]; at 10^−5 and 10^−6 M", "value": "without significant effect"},
      {"measurement": "activity of NF-κB", "setting": "[3]; at 10^−6 M", "value": "slightly stimulated"},
      {"measurement": "effect on transformation into foam cells", "setting": "THP-1 cell line; 10^−5 M", "value": "favouring effect"},
      {"measurement": "effect on transformation into foam cells", "setting": "THP-1 cell line; at 10^−5 and 10^−6 M", "value": "does not inhibit the transformation into foam cells"}
    ]}
  ]
}
